Test results as given in ChEMBL document CHEMBL4400531, “Structure-Based Design of N-(5-Phenylthiazol-2-yl)acrylamides as Novel and Potent Glutathione S-Transferase Omega 1 Inhibitors” (J Med Chem, 2019).

Assays:
[1] = target: T1, Glutathione S-transferase omega-1 (Homo sapiens, UniProt P78417); assay: Inhibition of CMFDA binding to human N-terminal 6x-His-tagged GSTO1-1 preincubated for 30 mins followed by CMFDA addition and measured after 30 mins by in-gel fluorescence binding assay
T1 sequence (P78417 whole entry): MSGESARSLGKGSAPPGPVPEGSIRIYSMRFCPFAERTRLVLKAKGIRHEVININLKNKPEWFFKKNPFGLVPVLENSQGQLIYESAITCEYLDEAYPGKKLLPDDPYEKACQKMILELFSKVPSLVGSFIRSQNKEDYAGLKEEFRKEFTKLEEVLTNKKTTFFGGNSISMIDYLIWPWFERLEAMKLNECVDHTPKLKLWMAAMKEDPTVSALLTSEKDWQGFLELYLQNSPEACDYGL

HT-29 = assay: cells; settings: Homo sapiens, HT-29, 72 h
HCT-116 = assay: cells; settings: Homo sapiens, HCT-116, 72 h
Description: Antiproliferative activity against human HCT116 cells after 72 hrs by MTT assay

[2] = Metabolic stability in mouse liver microsomes at 1 uM in presence of NADPH incubated for 5 mins by LC-MS/MS analysis; type: ADME, Microsome; settings: read-out: Stability
[3] = Stability of the compound in 20% acetonitrile/PBS buffer at room temperature by LC-MS/MS analysis; type: physicochemical
[4] = Half life in mouse liver microsomes at 1 uM in presence of NADPH by LC-MS/MS analysis; type: ADME, Microsome
[5] = Metabolic stability in mouse liver microsomes at 1 uM in presence of NADPH incubated for 0 mins by LC-MS/MS analysis; type: ADME, Microsome; settings: read-out: Stability
[6] = Metabolic stability in human liver microsomes at 1 uM in presence of NADPH incubated for 5 mins by LC-MS/MS analysis; type: ADME, Microsome; settings: read-out: Stability
[7] = Metabolic stability in human liver microsomes at 1 uM in presence of NADPH incubated for 10 mins by LC-MS/MS analysis; type: ADME, Microsome; settings: read-out: Stability
[8] = Metabolic stability in human liver microsomes at 1 uM in presence of NADPH incubated for 60 mins by LC-MS/MS analysis; type: ADME, Microsome; settings: read-out: Stability
[9] = Half life in human liver microsomes at 1 uM in presence of NADPH by LC-MS/MS analysis; type: ADME, Microsome
[10] = Metabolic stability in human liver microsomes at 1 uM in presence of NADPH incubated for 15 mins by LC-MS/MS analysis; type: ADME, Microsome; settings: read-out: Stability
[11] = Metabolic stability in mouse liver microsomes at 1 uM in presence of NADPH incubated for 10 mins by LC-MS/MS analysis; type: ADME, Microsome; settings: read-out: Stability
[12] = Metabolic stability in human liver microsomes at 1 uM in presence of NADPH incubated for 45 mins by LC-MS/MS analysis; type: ADME, Microsome; settings: read-out: Stability
[13] = Metabolic stability in mouse liver microsomes at 1 uM in presence of NADPH incubated for 15 mins by LC-MS/MS analysis; type: ADME, Microsome; settings: read-out: Stability
[14] = Metabolic stability in human liver microsomes at 1 uM in presence of NADPH incubated for 30 mins by LC-MS/MS analysis; type: ADME, Microsome; settings: read-out: Stability
[15] = Metabolic stability in mouse liver microsomes at 1 uM in presence of NADPH incubated for 60 mins by LC-MS/MS analysis; type: ADME, Microsome; settings: read-out: Stability
[16] = Metabolic stability in mouse liver microsomes at 1 uM in presence of NADPH incubated for 45 mins by LC-MS/MS analysis; type: ADME, Microsome; settings: read-out: Stability
[17] = Metabolic stability in mouse liver microsomes at 1 uM in presence of NADPH incubated for 30 mins by LC-MS/MS analysis; type: ADME, Microsome; settings: read-out: Stability
[18] = Metabolic stability in human liver microsomes at 1 uM in presence of NADPH incubated for 0 mins by LC-MS/MS analysis; type: ADME, Microsome; settings: read-out: Stability

Structure (SMILES)	IC50 [1] [µM]	IC50 (HT-29) [µM]	IC50 (HCT-116) [µM]	other results
C=CC(=O)N1CCC(c2ccccc2)CC1	> 10	> 30	> 30	–
C=CC(=O)N(Cc1cc(C)no1)c1nc(-c2ccccc2O)cs1	–	–	–	remaining at 5 min, 1 µM [2]: 16%; Stability [3]: Stable; t1/2 [4]: 1.81 min; remaining at 0 h, 1 µM [5]: 100%; remaining at 5 min, 1 µM [6]: 14.8%; remaining at 10 min, 1 µM [7]: 7.41%; remaining at 1 h, 1 µM [8]: 3.7%; t1/2 [9]: 1.89 min; remaining at […], 1 µM [10]: 3.7%; remaining at 10 min, 1 µM [11]: 12%; remaining at 0.75 h, 1 µM [12]: 3.7%; remaining at […], 1 µM [13]: 12%; remaining at 0.5 h, 1 µM [14]: 3.7%; remaining at 1 h, 1 µM [15]: 4%; remaining at 0.75 h, 1 µM [16]: 4%; remaining at 0.5 h, 1 µM [17]: 8%; remaining at 0 h, 1 µM [18]: 100%
C=CC(=O)Nc1nc(-c2ccc(Cl)cc2)cs1	–	–	–	Stability [3]: Stable; t1/2 [4]: 3.21 min; t1/2 [9]: 9.52 min
C=CC(=O)N1CCC(Cc2ccccc2)CC1	> 10	> 30	> 30	–
C=CC(=O)Nc1cnn(-c2ccccc2)c1	> 10	> 30	> 30	–
C=CC(=O)Nc1cnn(Cc2ccccc2)c1	> 10	> 30	> 30	–
C=CC(=O)Nc1nc(-c2ccccc2OC)cs1	> 10	> 30	> 30	–
COC(=O)/C=C/CNc1ccc(Cl)c(S(=O)(=O)N(C)C)c1	> 10	> 30	> 30	–
C=CC(=O)Nc1nc(-c2ccc(O)cc2)cs1	> 10	6.1 to 13.5	7.1 to 12.5	–
